Results on 14 molecules are retold here after patent publication US12398140B2, “Substituted pyrrolo [2,3-d]pyrimidines for treating familial dysautonomia” (PTC THERAPEUTICS, INC., priority 2019, dated 2025).

Molecules are shown by their SMILES.

For the assay, the system named is Elongator complex protein 1 (ELPI, also referred to as IKBKAP). Nature of the assay: IKBKAP-HTRF assay (IKBKAP protein in lysates of FD patient-derived fibroblasts). It is filed as cell-based, human. The note with it: FD patient-derived fibroblasts GM04589, 48 hours, 7-point concentration curve. The method, then:
The assay is used for the quantitative determination of Elongator complex protein 1 (ELPI, also referred to as IKBKAP) concentration in cell lysates using the HTRF® (Homogeneous Time-Resolved Fluorescence) technology. IKBKAP is detected in a sandwich HTRF assay by use of an anti-IKAP antibody labeled with a donor and an anti-IKAP antibody labeled with an acceptor.
Cells were thawed and incubated in DMEM-10% FBS for 72 hours. Cells were trypsinized, counted, and re-suspended to a concentration of 50,000 cells/ml in DMEM-10% FBS. A 199 μL aliquot of the cell suspensions were plated at 10,000 cells per well in a 96 well microtiter plate and incubated for 3 to 5 hours. […] Test compounds were serially diluted 3.16-fold in 100% DMSO to generate a 7-point concentration curve. A 1 μL aliquot of 200× compound solution was transferred to cell-containing wells, and cells were incubated for 48 hours in a cell culture incubator (37° C., 5% CO2, 100% relative humidity). Triplicate samples were set up for each compound concentration. After 48 hours, the supernatant was removed from the cells and 50 μL of the 1×LB4 lysis buffer, containing protease inhibitors, was added to the cells and incubated with shaking at room temperature for 1 hour. A 36 μL aliquot of this lysate was subsequently transferred to the 384-well plate containing 4 μL of the antibody solution (1:50 dilution of anti IKAP d2 and anti-IKAP K(9+8) in detection buffer). The 384-well plate was then centrifuged for 1 minute to bring the solutions to the bottom of the plate and incubated overnight at 4° C. Fluorescence for each well of the plate at 665 nm and 620 nm was measured was on the EnVision plate reader (Perkin Elmer). The ΔF for each sample is calculated by:
[formula] wherein Signal is the normalized fluorescence for each sample well and Blank is the average normalized average fluorescence for the Blank control wells.
The maximum fold increase (MFI) in IKBKAP protein abundance for compounds of Formula (I) or a form thereof relative to the vehicle control are provided in Table 1. MFI was calculated by dividing the ΔF value for each sample well by the sample ΔF for the vehicle control wells.
The EC2x for IKBKAP protein expression obtained from the 7-point concentration curve generated for each test compound according to the protocol in Biological Example 1 are also provided in Table 1. The term “EC2x for IKBKAP protein expression” is defined as the concentration of test compound that is effective in producing two times the amount of IKBKAP protein in a FD patient cell compared to the amount produced from the DMSO vehicle control.
For orientation: In TR-FRET formats the signal depends on donor and acceptor labels being close together.

With `Cc1nc(NCc2ccco2)c2c(F)c(C[C@H](C)N)[nH]c2n1.Cl` [Cpd 34, 6-[(2S)-2-aminopropyl]-5-fluoro-N-[(furan-2-yl)methyl]-2-methyl-7H-pyrrolo[2,3-d]pyrimidin-4-amine hydrochloride], the “EC2x for IKBKAP protein expression (concentration producing two times the amount of IKBKAP protein vs DMSO vehicle control)” value is “*** (between >0.02 μM and ≤0.5 μM is indicated by three stars (***))”; the “MFI (maximum fold increase in IKBKAP protein abundance relative to the vehicle control)” value is listed as “***** (>4.9 is indicated by five stars (*****))”.
Regarding `Cc1c(C[C@H](C)N)n(C)c2nc(Cl)nc(NCc3ccco3)c12.Cl` [Cpd 35, 6-[(2S)-2-aminopropyl]-2-chloro-N-[(furan-2-yl)methyl]-5,7-dimethyl-7H-pyrrolo[2,3-d]pyrimidin-4-amine hydrochloride], the “EC2x for IKBKAP protein expression (concentration producing two times the amount of IKBKAP protein vs DMSO vehicle control)” value was “**** (between >0.005 μM and ≤0.02 μM is indicated by four stars (****))”; the “MFI (maximum fold increase in IKBKAP protein abundance relative to the vehicle control)” value is on record as “***** (>4.9 is indicated by five stars (*****))”.
For `C[C@H](N)Cc1[nH]c2nc(Cl)nc(NCc3nccs3)c2c1F.Cl` [Cpd 36, 6-[(2S)-2-aminopropyl]-2-chloro-5-fluoro-N-[(1,3-thiazol-2-yl)methyl]-7H-pyrrolo[2,3-d]pyrimidin-4-amine hydrochloride], the “EC2x for IKBKAP protein expression (concentration producing two times the amount of IKBKAP protein vs DMSO vehicle control)” value is “**** (between >0.005 μM and ≤0.02 μM is indicated by four stars (****))”; the “MFI (maximum fold increase in IKBKAP protein abundance relative to the vehicle control)” value is given as “***** (>4.9 is indicated by five stars (*****))”.
Turning to `COC[C@H](N)Cc1c(F)c2c(NCc3ccco3)nc(Cl)nc2n1C.Cl` [Cpd 37, 6-[(2R)-2-amino-3-methoxypropyl]-2-chloro-5-fluoro-N-[(furan-2-yl)methyl]-7-methyl-7H-pyrrolo[2,3-d]pyrimidin-4-amine hydrochloride], the “EC2x for IKBKAP protein expression (concentration producing two times the amount of IKBKAP protein vs DMSO vehicle control)” value was “*** (between >0.02 μM and ≤0.5 μM is indicated by three stars (***))”; the “MFI (maximum fold increase in IKBKAP protein abundance relative to the vehicle control)” value is “***** (>4.9 is indicated by five stars (*****))”.
For `C[C@H](N)Cc1c(F)c2c(NCc3nccs3)nc(Cl)nc2n1C.Cl` [Cpd 38, 6-[(2S)-2-aminopropyl]-2-chloro-5-fluoro-7-methyl-N-[(1,3-thiazol-2-yl)methyl]-7H-pyrrolo[2,3-d]pyrimidin-4-amine hydrochloride], the “EC2x for IKBKAP protein expression (concentration producing two times the amount of IKBKAP protein vs DMSO vehicle control)” value was “*** (between >0.02 μM and ≤0.5 μM is indicated by three stars (***))”; the “MFI (maximum fold increase in IKBKAP protein abundance relative to the vehicle control)” value is reported as “***** (>4.9 is indicated by five stars (*****))”.
For the molecule `Cl.Cn1c(C[C@@H](N)CO)c(F)c2c(NCc3ccco3)nc(Cl)nc21` [Cpd 39, (2R)-2-amino-3-(2-chloro-5-fluoro-4-{[(furan-2-yl)methyl]amino}-7-methyl-7H-pyrrolo[2,3-d]pyrimidin-6-yl)propan-1-ol hydrochloride], the “EC2x for IKBKAP protein expression (concentration producing two times the amount of IKBKAP protein vs DMSO vehicle control)” value was “**** (between >0.005 μM and ≤0.02 μM is indicated by four stars (****))”; the “MFI (maximum fold increase in IKBKAP protein abundance relative to the vehicle control)” value is recorded as “***** (>4.9 is indicated by five stars (*****))”.
For the molecule `C[C@H](N)Cc1[nH]c2nc(Cl)nc(NCc3cccs3)c2c1F.Cl` [Cpd 40, 6-[(2S)-2-aminopropyl]-2-chloro-5-fluoro-N-[(thiophen-2-yl)methyl]-7H-pyrrolo[2,3-d]pyrimidin-4-amine hydrochloride], the “EC2x for IKBKAP protein expression (concentration producing two times the amount of IKBKAP protein vs DMSO vehicle control)” value is “**** (between >0.005 μM and ≤0.02 μM is indicated by four stars (****))”; the “MFI (maximum fold increase in IKBKAP protein abundance relative to the vehicle control)” value is “***** (>4.9 is indicated by five stars (*****))”.
For `C[C@H](N)Cc1c(F)c2c(NCc3ccncc3F)nc(Cl)nc2n1C.Cl.Cl` [Cpd 41, 6-[(2S)-2-aminopropyl]-2-chloro-5-fluoro-N-[(3-fluoropyridin-4-yl)methyl]-7-methyl-7H-pyrrolo[2,3-d]pyrimidin-4-amine dihydrochloride], the “EC2x for IKBKAP protein expression (concentration producing two times the amount of IKBKAP protein vs DMSO vehicle control)” value is “*** (between >0.02 μM and ≤0.5 μM is indicated by three stars (***))”; the “MFI (maximum fold increase in IKBKAP protein abundance relative to the vehicle control)” value is listed as “***** (>4.9 is indicated by five stars (*****))”.
In the case of `CCn1c(C[C@H](C)N)c(F)c2c(NCc3ccco3)nc(Cl)nc21.Cl` [Cpd 42, 6-[(2S)-2-aminopropyl]-2-chloro-7-ethyl-5-fluoro-N-[(furan-2-yl)methyl]-7H-pyrrolo[2,3-d]pyrimidin-4-amine hydrochloride], the “EC2x for IKBKAP protein expression (concentration producing two times the amount of IKBKAP protein vs DMSO vehicle control)” value was “*** (between >0.02 μM and ≤0.5 μM is indicated by three stars (***))”; the “MFI (maximum fold increase in IKBKAP protein abundance relative to the vehicle control)” value is “** (between >1.9 and ≤2.9 is indicated by two stars (**))”.
`C[C@H](N)Cc1c(F)c2c(NCc3ccncc3)nc(Cl)nc2n1C.Cl.Cl` [Cpd 43, 6-[(2S)-2-aminopropyl]-2-chloro-5-fluoro-7-methyl-N-[(pyridin-4-yl)methyl]-7H-pyrrolo[2,3-d]pyrimidin-4-amine dihydrochloride]: the “EC2x for IKBKAP protein expression (concentration producing two times the amount of IKBKAP protein vs DMSO vehicle control)” value is “*** (between >0.02 μM and ≤0.5 μM is indicated by three stars (***))”; the “MFI (maximum fold increase in IKBKAP protein abundance relative to the vehicle control)” value is recorded as “***** (>4.9 is indicated by five stars (*****))”.
As to `CC[C@H](N)Cc1[nH]c2nc(Cl)nc(NCc3ccco3)c2c1F.Cl` [Cpd 44, 6-[(2S)-2-aminobutyl]-2-chloro-5-fluoro-N-[(furan-2-yl)methyl]-7H-pyrrolo[2,3-d]pyrimidin-4-amine hydrochloride], the “EC2x for IKBKAP protein expression (concentration producing two times the amount of IKBKAP protein vs DMSO vehicle control)” value was “**** (between >0.005 μM and ≤0.02 μM is indicated by four stars (****))”; the “MFI (maximum fold increase in IKBKAP protein abundance relative to the vehicle control)” value is listed as “***** (>4.9 is indicated by five stars (*****))”.
Regarding `CC[C@H](N)Cc1c(F)c2c(NCc3ccco3)nc(Cl)nc2n1C.Cl` [Cpd 45, 6-[(2S)-2-aminobutyl]-2-chloro-5-fluoro-N-[(furan-2-yl)methyl]-7-methyl-7H-pyrrolo[2,3-d]pyrimidin-4-amine hydrochloride], the “EC2x for IKBKAP protein expression (concentration producing two times the amount of IKBKAP protein vs DMSO vehicle control)” value was “*** (between >0.02 μM and ≤0.5 μM is indicated by three stars (***))”; the “MFI (maximum fold increase in IKBKAP protein abundance relative to the vehicle control)” value is listed as “***** (>4.9 is indicated by five stars (*****))”.
In the case of `COc1ccc(-n2c(C[C@H](C)N)c(F)c3c(NCc4ccco4)nc(Cl)nc32)cc1.Cl` [Cpd 46, 6-[(2S)-2-aminopropyl]-2-chloro-5-fluoro-N-[(furan-2-yl)methyl]-7-(4-methoxyphenyl)-7H-pyrrolo[2,3-d]pyrimidin-4-amine hydrochloride], the “EC2x for IKBKAP protein expression (concentration producing two times the amount of IKBKAP protein vs DMSO vehicle control)” value is “* (An EC2x>1 μM is indicated by one star (*))” and the “MFI (maximum fold increase in IKBKAP protein abundance relative to the vehicle control)” value is “* (An MFI≤1.9 is indicated by one star (*))”.
For `COc1ccc(-n2c(C[C@H](C)N)c(F)c3c(NCc4cccs4)nc(Cl)nc32)cc1.Cl` [Cpd 47, 6-[(2S)-2-aminopropyl]-2-chloro-5-fluoro-7-(4-methoxyphenyl)-N-[(thiophen-2-yl)methyl]-7H-pyrrolo[2,3-d]pyrimidin-4-amine hydrochloride] the same measures were “* (An EC2x>1 μM is indicated by one star (*))” and “* (An MFI≤1.9 is indicated by one star (*))”.
